Reference: patent US20210196731A1, “COMPOSITIONS AND METHODS FOR TREATING OCULAR INFLAMMATION AND OCULAR SCARRING” (priority 2018, published 2021)

What was measured:
HTCFs = assay: Collagen Contraction Assay V (AHGF induced, APHS and gentamicin vs mitomycin C); assay type: cell-based, human; settings: APHS 12 and 24 μg/ml
Method: HTCFs were seeded at a density of 2.5×10^5 cells/mL within an extracellular matrix (ECM) mixture containing 400 ul of rat tail-derived type I collagen (1.8 mg/ml), 80 ul of neutralizing solution (equal parts Waymouth's media (Gibco, CAT. NO: 11220035) and 0.275M NaOH) and 20 ul of HTCF conditioned media (concentrated to 25× to obtain a 1× final concentration within the 500 ul matrix solution). The cell-collagen solution was pipetted gently to ensure homogenous distribution of HTCFs while avoiding the production of air bubbles, then 500 ul were pipetted into each well of a 24-well tray. Collagen constructs were allowed to polymerize at 37 C for 45 minutes before adding low serum culture media containing DMEM, 2% Fetal Bovine Serum (FBS), 1% penicillin/streptomycin (P/S).
Tension was allowed to build up within the tethered matrix at 37 C and 5% CO2 for 72 hours before a sterile spatula was used to detach each collagen construct from the edges of the culture well. Plates were then immediately scanned on a flat bed laser scanner to record baseline area, and then measured periodically for a duration of 4 days. The surface area of each collagen construct was measured using ImageJ (NIH) and standardized against the baseline surface area measurement to express changes in area as a percentage of original surface area. […]

MMP9 = assay: Western blot of HTCF protein lysate, MMP9; assay type: cell-based, human; settings: ASA 100, 400, 1600 μg/ml, 48 hrs
Method: Cells were lysed in lysis buffer (PhosphoSafe Extraction Reagent, Novagen) containing a protease inhibitor cocktail (P2714, Sigma-Aldrich). Crude protein lysate was quantified using a Pierce BCA protein assay kit (ThermoFisher, Mississauga, ON) and 10 ug from each sample was resolved using a Novex WedgeWell 4-20% tris-glycine gel (Invitrogen). Using an iBlot Gel Transfer Device (IB1001, Invitrogen), the separated protein was transferred to a nitrocellulose membrane (1B301001, iBlot Transfer Stack, Invitrogen) which was then blocked with 5% (w/v) bovine serum albumin (Sigma-Aldrich) in Tris buffered saline (TBST) for 1 hour at room temperature. The membranes were incubated overnight at 4° C. with primary antibody diluted in TBST containing 5% BSA (w/vol). Primary antibodies used were as follows: collagen 1 (ab138492, Abcam), αSMA (ab5694, Abcam), MMP9 (ab38898, Abcam), PPARγ (sc-7273, SantaCruz Biotechnology), SMAD2/3 (ab63672, Abcam), pSMAD2/3 (ab63399, Abcam) and GAPDH (sc-47724, Santa Cruz Biotechnology, Inc.). […] Imaging and relative densiometric quantification was accomplished using a ChemiDoc MP System (Bio-Rad Laboratories, Inc.) connected to Image Lab (Version 6, Bio-Rad Laboratories, Inc.).

Row | SMILES | AHGF-induced HTCF-mediated collagen contraction (HTCFs) | AHGF-induced expression of MMP9 (MMP9)
1 | CCCCC#CCSc1ccccc1OC(C)=O [APHS, o-(acetoxyphenyl)hept-2-ynyl sulfide] | significantly inhibited AHGF-induced HTCF-mediated collagen contraction | 
2 | CC(=O)Oc1ccccc1C(=O)O [ASA, acetylsalicylic acid] |  | significantly impaired the AHGF-induced expression
